Test results as given in ChEMBL document CHEMBL5649166, “RIP3 induces apoptosis independent of pronecrotic kinase activity” (Mol Cell, 2014).

Legend:
[1] = biological target: T1, Ephrin type-B receptor 4 (Homo sapiens) (UniProt P54760); assay: Inhibition of human EPHB4 using poly[Glu:Tyr] (4:1) as substrate at 1 uM in presence of 32P-ATP by Hotspot assay relative to control; values are per cent of control
T1 sequence (whole entry): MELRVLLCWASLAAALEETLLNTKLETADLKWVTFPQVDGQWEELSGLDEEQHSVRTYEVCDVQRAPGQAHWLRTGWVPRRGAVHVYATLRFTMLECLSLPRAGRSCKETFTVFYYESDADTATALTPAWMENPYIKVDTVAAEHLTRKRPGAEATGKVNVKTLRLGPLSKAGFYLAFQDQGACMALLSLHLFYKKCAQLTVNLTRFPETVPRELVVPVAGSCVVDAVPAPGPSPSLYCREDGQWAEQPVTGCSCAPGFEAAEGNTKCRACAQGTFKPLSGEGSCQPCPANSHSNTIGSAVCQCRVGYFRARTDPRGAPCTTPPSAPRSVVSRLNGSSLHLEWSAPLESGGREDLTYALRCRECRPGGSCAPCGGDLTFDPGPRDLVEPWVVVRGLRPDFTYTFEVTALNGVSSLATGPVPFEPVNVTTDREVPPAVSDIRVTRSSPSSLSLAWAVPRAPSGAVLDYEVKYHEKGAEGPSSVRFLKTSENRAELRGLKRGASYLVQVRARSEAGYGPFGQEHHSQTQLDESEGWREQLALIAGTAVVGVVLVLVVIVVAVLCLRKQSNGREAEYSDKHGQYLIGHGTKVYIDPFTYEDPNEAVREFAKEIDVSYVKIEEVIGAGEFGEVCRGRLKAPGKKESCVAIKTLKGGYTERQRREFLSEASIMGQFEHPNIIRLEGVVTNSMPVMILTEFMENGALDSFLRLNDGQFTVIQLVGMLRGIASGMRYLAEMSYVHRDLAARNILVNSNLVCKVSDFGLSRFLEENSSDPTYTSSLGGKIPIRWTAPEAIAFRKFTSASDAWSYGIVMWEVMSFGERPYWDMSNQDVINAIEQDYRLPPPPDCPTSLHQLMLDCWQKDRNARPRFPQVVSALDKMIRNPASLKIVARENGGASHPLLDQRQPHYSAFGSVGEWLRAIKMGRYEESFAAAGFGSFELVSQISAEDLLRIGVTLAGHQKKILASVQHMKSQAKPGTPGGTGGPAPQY

[2] = biological target: T2, Protein kinase C iota type (Homo sapiens) (UniProt P41743); assay: Inhibition of human PKCiota using ERMRPRKRQGSVRRRV as substrate at 1 uM in presence of 32P-ATP by Hotspot assay relative to control; values are per cent of control
T2 sequence (whole entry): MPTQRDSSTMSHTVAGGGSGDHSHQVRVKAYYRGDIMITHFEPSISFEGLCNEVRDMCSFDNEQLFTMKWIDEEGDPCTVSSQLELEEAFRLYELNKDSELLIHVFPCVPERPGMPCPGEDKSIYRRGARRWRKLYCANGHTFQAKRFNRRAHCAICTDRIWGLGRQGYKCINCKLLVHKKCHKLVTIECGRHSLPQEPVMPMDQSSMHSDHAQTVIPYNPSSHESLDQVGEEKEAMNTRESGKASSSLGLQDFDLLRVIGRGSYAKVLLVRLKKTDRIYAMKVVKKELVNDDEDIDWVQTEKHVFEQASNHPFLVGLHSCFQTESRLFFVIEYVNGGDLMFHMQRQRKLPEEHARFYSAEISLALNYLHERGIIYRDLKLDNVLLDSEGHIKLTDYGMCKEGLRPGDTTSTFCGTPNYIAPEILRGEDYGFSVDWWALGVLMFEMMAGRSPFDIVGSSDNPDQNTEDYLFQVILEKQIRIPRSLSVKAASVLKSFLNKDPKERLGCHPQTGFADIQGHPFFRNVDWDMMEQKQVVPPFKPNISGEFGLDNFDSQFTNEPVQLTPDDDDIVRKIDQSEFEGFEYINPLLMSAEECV

[3] = biological target: T3, cAMP-dependent protein kinase catalytic subunit PRKX (Homo sapiens) (UniProt P51817); assay: Inhibition of human PRKX using LRRASLG as substrate at 1 uM in presence of 32P-ATP by Hotspot assay relative to control; values are per cent of control
T3 sequence (whole entry): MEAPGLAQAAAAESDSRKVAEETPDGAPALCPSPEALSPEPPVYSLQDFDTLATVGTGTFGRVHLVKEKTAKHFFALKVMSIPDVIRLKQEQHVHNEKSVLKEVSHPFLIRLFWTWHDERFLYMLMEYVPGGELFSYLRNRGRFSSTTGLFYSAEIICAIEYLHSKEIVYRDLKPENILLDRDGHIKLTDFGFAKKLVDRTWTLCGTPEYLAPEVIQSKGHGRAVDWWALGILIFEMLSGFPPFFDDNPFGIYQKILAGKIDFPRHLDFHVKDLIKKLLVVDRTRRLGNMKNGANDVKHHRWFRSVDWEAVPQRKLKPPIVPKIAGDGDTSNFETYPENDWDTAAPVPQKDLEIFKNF

[4] = biological target: T4, Inhibitor of nuclear factor kappa-B kinase subunit alpha (Homo sapiens) (UniProt O15111); assay: Inhibition of human IKKa/CHUK using KKKKERLLDDRHDSGLDSMKDEE as substrate at 1 uM in presence of 32P-ATP by Hotspot assay relative to control; values are per cent of control
T4 sequence (whole entry): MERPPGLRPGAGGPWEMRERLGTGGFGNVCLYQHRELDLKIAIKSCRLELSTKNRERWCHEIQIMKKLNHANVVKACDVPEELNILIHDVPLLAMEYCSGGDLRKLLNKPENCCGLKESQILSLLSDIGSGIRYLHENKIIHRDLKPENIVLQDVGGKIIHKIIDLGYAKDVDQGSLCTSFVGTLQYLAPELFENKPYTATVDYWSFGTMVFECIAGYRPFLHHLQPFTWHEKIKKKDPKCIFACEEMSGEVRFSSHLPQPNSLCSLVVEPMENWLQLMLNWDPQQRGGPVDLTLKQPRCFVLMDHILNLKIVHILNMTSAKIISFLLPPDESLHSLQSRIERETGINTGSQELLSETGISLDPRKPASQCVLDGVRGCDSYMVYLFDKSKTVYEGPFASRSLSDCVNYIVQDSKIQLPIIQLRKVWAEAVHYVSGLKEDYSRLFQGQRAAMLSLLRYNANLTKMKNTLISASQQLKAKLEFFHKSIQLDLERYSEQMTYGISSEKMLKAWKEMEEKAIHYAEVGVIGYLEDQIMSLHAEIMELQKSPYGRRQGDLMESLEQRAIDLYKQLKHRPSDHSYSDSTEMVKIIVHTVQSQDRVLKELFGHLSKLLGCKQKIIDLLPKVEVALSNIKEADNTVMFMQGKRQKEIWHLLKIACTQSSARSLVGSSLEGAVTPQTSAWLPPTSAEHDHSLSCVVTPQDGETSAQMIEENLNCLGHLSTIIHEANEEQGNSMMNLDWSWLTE

| Structure (SMILES) | residual activity [1] [%] | residual activity [2] [%] | residual activity [3] [%] | residual activity [4] [%] |
| --- | --- | --- | --- | --- |
| Cc1cc(-c2cnc(N)c3c(-c4ccc5scnc5c4)csc23)n(C)n1 | 56.3 | 102 | 94.2 | 94.8 |
| CNC(=O)c1ccc2c(c1)ncn2-c1ccc(CC(=O)OC(C)(C)C)cc1 | 89.7 | 93.8 | 93.6 | 89.9 |
| CC(C)S(=O)(=O)c1ccc2nccc(Nc3ccc4scnc4c3)c2c1 | 60.2 | 83 | 101 | 88.2 |
